Reference: paper PMC8110993, “Structure and antimicrobial activity of NCR169, a nodule-specific cysteine-rich peptide of Medicago truncatula” (Scientific Reports, 2021)
Where a SMILES comes first, the peptide text is derived from it.

Tests used:
[1] = format: physicochemical; settings: 20 mM HEPES pH 7.0 salt-free, or with 50 to 200 mM NaCl or KCl, and PBS pH 7.4; 1 h room temperature, centrifuged 20,000 × g, supernatant by Tricine-SDS-PAGE
Experimental: (§1) To confirm it, we examined the solubility of NCR169 in various solvents, HEPES (salt-free), HEPES with salt (50 to 200 mM NaCl or KCl), and PBS. […] In other words, the disulfide bonds of NCR169 contribute to its solubility.
Supplementary Figure S3. Solubility assessment of NCR169. The same amount of NCR169 was dissolved in various solvents. After incubation at room temperature for 1 h, the solution was centrifuged at 20,000 × g and the supernatant was analyzed by Tricine-SDS-PAGE. […]

[2] = HPLC retention time as measure of surface hydrophobicity; format: physicochemical; settings: C18 column, linear gradient 30 to 45% acetonitrile, 220 nm; compared with NCR169 oxidized forms
Experimental: Figure 1 Sample preparation of NCR169 peptides. (A) High-performance liquid chromatography (HPLC) analyses of NCR169 peptides. Purified NCR169-ox1, NCR-ox2, NCR169-red, and reoxidized NCR169-red (NCR-red + GSSG) were analyzed by HPLC with a linear gradient of 30 to 45% acetonitrile and monitored at 220 nm. (B) MALDI-TOF–MS spectra of HPLC-purified NCR169-ox1 (upper), NCR169-ox2 (middle), and NCR169-red (lower). (C) Amino acid sequences of NCR169 peptides used in this study. The cysteine numbers (C1 to C4) are indicated in red on the sequence. The experimentally determined disulfide linkage patterns are indicated by connecting lines on the sequences. The first N-terminal residue, G (underlined), is the extra residue remaining after tag cleavage.
as §1
To prepare the reduced peptide (NCR169-red), NCR169-ox was reduced with 10 mM tris(2-carboxyethyl)phosphine (TCEP) at pH 10.5, followed by acidification using trifluoroacetate (TFA) and HPLC purification with a C18 column and 30–45% ACN gradient. The fractions were collected and dried under vacuum conditions. The purified peptides were confirmed using MALDI-TOF–MS.

CC[C@H](C)[C@H](NC(=O)CNC(=O)[C@H](CS)NC(=O)[C@H](Cc1ccc(O)cc1)NC(=O)[C@H](CCCCN)NC(=O)[C@@H](NC(=O)[C@H](Cc1c[nH]cn1)NC(=O)CNC(=O)[C@@H](NC(=O)[C@H](CC(=O)O)NC(=O)[C@H](CCC(=O)O)NC(=O)CN)[C@@H](C)CC)[C@@H](C)CC)C(=O)N[C@H](C(=O)N[C@@H](CC(=O)O)C(=O)N[C@@H](CC(=O)O)C(=O)N[C@@H](CS)C(=O)N[C@@H](Cc1ccc(O)cc1)C(=O)N[C@@H](CCCCN)C(=O)N[C@@H](CO)C(=O)N[C@@H](CCCCN)C(=O)N[C@@H](CCCCN)C(=O)N1CCC[C@H]1C(=O)N[C@@H](CC(C)C)C(=O)N[C@@H](Cc1ccccc1)C(=O)N[C@@H](CCCCN)C(=O)N[C@H](C(=O)N[C@@H](Cc1c[nH]c2ccccc12)C(=O)N[C@@H](CCCCN)C(=O)N[C@@H](CS)C(=O)N[C@H](C(=O)N[C@@H](CCC(=O)O)C(=O)N[C@@H](CC(N)=O)C(=O)N[C@H](C(=O)N[C@@H](CS)C(=O)N[C@H](C(=O)N[C@@H](CC(C)C)C(=O)N[C@@H](Cc1c[nH]c2ccccc12)C(=O)N[C@@H](Cc1ccc(O)cc1)C(=O)N[C@@H](CCCCN)C(=O)O)C(C)C)C(C)C)C(C)C)[C@@H](C)CC)C(C)C [NCR169-red] (H-GEDIGHIKYCGIVDDCYKSKKPLFKIWKCVENVCVLWYK-OH)
Solubility in various solvents [1]: insoluble in all conditions except the salt-free buffer
HPLC retention time (hydrophobicity of molecular surface) [2]: longer than that of the NCR169 oxidized forms
